Experimental data taken from US11524046B2, “Biofilm prevention, disruption and treatment with bacteriophage lysin” (priority 2012, dated 2022).
≈ marks a conversion by molar mass, not a printed value. Like-named read-outs stand apart in the source and are kept apart here. Marks after values point to notes of the source that are not given here.

Key:
S. aureus strains = assay: PlySs2 and antibiotic MIC, broth microdilution, 80% growth inhibition (CLSI M07-A9); format: cell-based; conditions: for MIC90: Staphylococcus aureus
biofilms of BAA-42 MRSA = assay: Biofilm eradication in 24-well plates, crystal violet staining; format: cell-based, S. aureus; conditions: for change in biofilm, visually: 1000 ug/ml (1000×MIC), 4 hours or 6 hours; for biofilm clearance: 1000×MIC, 24 hours
[1] = tested on: MRSA biofilms grown on catheters (strain ATCC BAA-42); assay: Catheter biofilm eradication in vitro, methylene blue staining; conditions: 1000×MIC, 24 hours
[2] = tested on: MRSA biofilms grown on catheters (strain ATCC BAA-42); assay: Catheter biofilm residual CFU, BacTiter-Glo luciferase estimate
S. aureus biofilms = conditions: cited from earlier work; for effect on the established S. aureus biofilms: high concentrations: oxacillin 400, vancomycin 800, clindamycin 800 (printed ag/ml, tag/ml), 24 h
[3] = tested on: methicillin resistant S. aureus MRSA strain ATCC BAA-42; assay: MIC by broth microdilution (CLSI M07-A9) against strain ATCC BAA-42; format: cell-based; conditions: ATCC BAA-42
[4] = tested on: ATCC BAA-42 MRSA biofilms; assay: ClyS activity on biofilm in polystyrene plates, crystal violet staining; format: cell-based, S. aureus; conditions: 24 hours

For `CC(=O)NC[C@H]1CN(c2ccc(N3CCOCC3)c(F)c2)C(=O)O1` [Linezolid, linezolid], the MIC50/90 (S. aureus strains; DRSA (n = 8)) was 2, the “MIC50/90 [uM]” value (S. aureus strains; DRSA (n = 8)) was 5.7 µM (≈ 1.92 µg/mL) and the MIC50/90 (S. aureus strains; LRSA (n = 5)) was >64. For the same molecule, the “MIC50/90 [uM]” value (S. aureus strains; LRSA (n = 5)) was >183 µM, the MIC50/90 (S. aureus strains; MRSA (n = 45)) was 2 and the “MIC50/90 [uM]” value (S. aureus strains; MRSA (n = 45)) was 5.7 µM (≈ 1.92 µg/mL). For the same molecule, the MIC50/90 (S. aureus strains; MSSA (n-28)) was 2, the “MIC50/90 [uM]” value (S. aureus strains; MSSA (n-28)) was 5.7 µM (≈ 1.92 µg/mL) and the MIC50/90 (S. aureus strains; VISA (n = 10)) was 2. The “MIC50/90 [uM]” value (S. aureus strains; VISA (n = 10)) was 5.7 µM (≈ 1.92 µg/mL), the MIC50/90 (S. aureus strains; VRSA (n = 14)) was 2 and the “MIC50/90 [uM]” value (S. aureus strains; VRSA (n = 14)) was 5.7 µM (≈ 1.92 µg/mL). The “change in biofilm, visually” value (biofilms of BAA-42 MRSA) was “No change” and the biofilm clearance (biofilms of BAA-42 MRSA) was “no biofilm clearance”.

`CCCCCCCCCC(=O)N[C@@H](Cc1c[nH]c2ccccc12)C(=O)N[C@H](CC(N)=O)C(=O)N[C@@H](CC(=O)O)C(=O)N[C@@H]1C(=O)NCC(=O)N[C@@H](CCCN)C(=O)N[C@@H](CC(=O)O)C(=O)N[C@H](C)C(=O)N[C@@H](CC(=O)O)C(=O)NCC(=O)N[C@H](CO)C(=O)N[C@@H]([C@H](C)CC(=O)O)C(=O)N[C@@H](CC(=O)c2ccccc2N)C(=O)O[C@@H]1C` [Daptomycin, daptomycin] gave an MIC90 (S. aureus strains; DRSA (n = 8), read-out: MIC90) of 9.9 µM (≈ 16 µg/mL), an MIC90 (S. aureus strains; LRSA (n = 5), read-out: MIC90) of 0.6 µM (≈ 0.972 µg/mL) and an MIC90 (S. aureus strains; MRSA, MRSA (n = 45), read-out: MIC90) of 0.6 µM (≈ 0.972 µg/mL). It also gave an MIC90 (S. aureus strains; MSSA, MSSA (n-28), read-out: MIC90) of 0.6 µM (≈ 0.972 µg/mL), an MIC90 (S. aureus strains; VISA, VISA (n = 10), read-out: MIC90) of 4.9 µM (≈ 7.94 µg/mL) and an MIC90 (S. aureus strains; VRSA, VRSA (n = 14), read-out: MIC90) of 0.6 µM (≈ 0.972 µg/mL). The “change in biofilm, visually” value (biofilms of BAA-42 MRSA) was “No change”, the biofilm clearance (biofilms of BAA-42 MRSA) was “no biofilm clearance” and the biofilm dissolution (biofilms of BAA-42 MRSA; concentrations up to 10×MIC, up to 24 hours) was “no dissolution”. For the same molecule, the “biofilm clearance from the catheter” value [1] was “did not remove significant biofilm”, the CFU reduction ([2]; 1×MIC, 24 hours) was “no CFU reduction” and the “CFUs remaining in catheter biofilm” value ([2]; 1000× MIC, 24 hours, from 100 million) was 1 million. For the same molecule, the CFU reduction ([2]; 1000×MIC, 24 hours) was “two log reduction” and the “removal of biofilm bacteria” value ([2]; up to concentrations of 5000×MIC) was “completely ineffective”.

With `CN[C@H](CC(C)C)C(=O)N[C@H]1C(=O)N[C@@H](CC(N)=O)C(=O)N[C@H]2C(=O)N[C@H]3C(=O)N[C@H](C(=O)N[C@H](C(=O)O)c4cc(O)cc(O)c4-c4cc3ccc4O)[C@H](O)c3ccc(c(Cl)c3)Oc3cc2cc(c3O[C@@H]2O[C@H](CO)[C@@H](O)[C@H](O)[C@H]2O[C@H]2C[C@](C)(N)[C@H](O)[C@H](C)O2)Oc2ccc(cc2Cl)[C@H]1O` [Vancomycin, vancomycin] the MIC90 (S. aureus strains) was 0.7 µM (≈ 1.01 µg/mL), the MIC90 (S. aureus strains; MRSA) was 0.7 µM (≈ 1.01 µg/mL) and the MIC90 (S. aureus strains; MSSA) was 0.7 µM (≈ 1.01 µg/mL). For the same molecule, the MIC90 (S. aureus strains; VISA) was 2.7 µM (≈ 3.91 µg/mL), the MIC90 (S. aureus strains; VRSA) was > 10.6 µM and the “change in biofilm, visually” value (biofilms of BAA-42 MRSA) was “No change”. For the same molecule, the biofilm clearance (biofilms of BAA-42 MRSA) was “no biofilm clearance” and the “effect on the established S. aureus biofilms” value (S. aureus biofilms) was “no effect”.

In the case of “Lysostaphin: gene product of Staphylococcus simulans degrading the polyglycine crosslinks of the S. aureus cell wall”, the “effect on S. aureus biofilms in vitro on plastic and glass surfaces” value (S. aureus biofilms; lysostaphin-sensitive S. aureus) is given as “disrupted the extracellular matrix”.

For `Cc1onc(-c2ccccc2)c1C(=O)N[C@@H]1C(=O)N2[C@@H]1SC(C)(C)[C@@H]2C(=O)O` [Oxacillin, oxacillin], the MIC50/90 (S. aureus strains; MRSA (n = 45)) is listed as >4*, the “MIC50/90 [uM]” value (S. aureus strains; MRSA (n = 45)) is listed as >10.0 µM and the “effect on the established S. aureus biofilms” value (S. aureus biofilms) is listed as “no effect”.

B1: ClyS: chimeric lysin with activity against Staphylococci, detailed in WO 2010/002959; SEQ ID NO: 5 (protein, listed as Staphylococcus aureus)
chain: METLKQAESYIKSKVNTGTDFDGLYGYQCMDLAVDYIYHVTDGKIRMWGNAKDAINNSFGGTATVYKNYPAFRPKYGDVVVWTTGNFATYGHIAIVTNPDPYGDLQYVTVLEQNWNGNGIYKTELATIRTHDYTGITHFIRPNFATESSVKKKDTKKKPKPSNRDGLNKDKIVYDRTNINYNMVLQGKSASKITVGSKAPYNLKWSKGAYFNAKIDGLGATSATRYGDNRTNYRFDVGQAVYAPGTLIYVFEIIDGWCRIYWNNHNEWIWHERLIVKEVF
With B1 the “MIC of the ClyS lysin” value [3] was 32 µg/mL, the biofilm dispersal ([4]; 0.032 μg/ml) was “somewhat” and the biofilm dispersal ([4]; 0.32 μg/ml) was “Reduction in stained biofilm”. The biofilm dispersal ([4]; 3.2 μg/ml (0.1× MIC)) was “effectively disperses” and the biofilm dispersal ([4]; 32 μg/ml (1×MIC)) was “effectively disperses”.
